These results are taken from article PMC9475553, “SHF Acts as a Novel Tumor Suppressor in Glioblastoma Multiforme by Disrupting STAT3 Dimerization” (Advanced Science, 2022).

One experiment concerns STAT3 dimerization. Nature of the experiment: IP assay: STAT3 dimerization in 293T cells. It counts as cell-based, human. The following applies: transfected 293T cells incubated with C16 for 2 h. The protocol: (§1) Figure 7 Peptide derived from the STAT3‐binding sites of SHF is an effective GBM suppressive strategy. A) Binding model between SHF and STAT3 using ZDOCK server. […] B) IF staining determined the cell penetrability and nuclear‐localization of C16. U251 cells were incubated with C16 or SC for 2 h and performed IF staining using the indicated antibodies. Bars, 10 µm. C) The statical analysis of adsorption equilibrium assay detecting the binding of C16 and SC with recombinant STAT3. D) Pull‐down assay indicating C16 binds STAT3. GST‐STAT3 was incubated with C16 or SC for 2 h, and the pull‐down assay was performed using Anti‐His magnetic beads. E) IP assay showing the effect of C16 on STAT3 dimerization. 293T cells transfected with indicated vectors were incubated with C16 for 2 h. The relative quantification of STAT3 dimerization was listed. F) IP assay detecting the effect of C16 on the interaction of STAT3 and DNMT1. […] The relative quantification of STAT3/DNMT1 interaction was listed. […] The relative quantification of STAT3/DNMT1 interaction was listed. […] Positive cells were quantified 20 randomly selected fields per mouse (n = 6, Student's t‐test, **p < 0.01). […]
Immunoprecipitation (IP) experiments were performed to analyze the protein interactions. […] Precipitated products were analyzed by Western blot using the specified antibodies. […]

Experiment [1] relates to STAT3 transcriptional activity. Nature of the experiment: STAT3 transcriptional reporter (SIE luciferase) assay in U87 cells. In kind it is cell-based, human. The following applies: C16 for 12 h, n = 3, p < 0.01. As for the experimental part: as §1
STAT3 transcriptional activity was evaluated by a luciferase reporter system according our previously study.^[ [19] ^] […] Cells were collected, lysed, and measured using the Dual‐Glo Luciferase Assay System kit (Promega).

“C16: peptide spanning SHF amino acids 388–421, palmitic acid at the N-terminus, amidated C-terminus, 3× His tags added to the C-terminal (PFSSVPEIVHHYASRKLPIKGAEHMSLLYPVAIR; palmitic acid at the N-terminus; amidated C-terminus; left off: 3× His tags, C-terminal, kept)”: the “inhibition of STAT3 dimerization (IP)” value with STAT3 dimerization is given as “effectively inhibits STAT3 dimerization”. Also, the STAT3 transcriptional activity result in experiment [1] is reported as “significant decrease”.
